Where a name gives a salt, the structure may show the parent alone.
Columns and labels:
[1] = tested on: Klebsiella pneumoniae expressing KPC-1 (CL6569); assay: Antibiotic activity: growth inhibitory concentration (OD600), Klebsiella pneumoniae CL6569; format: cell-based; details: lowest concentration inhibiting 95% of bacterial growth; in the presence of β lactamase inhibitor Relebactam 4 μg/mL; 35±2° C. for 22 hours; tested range 100 μM to 0.098 μM
How it was run: (§1)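 Clinical strains at ~2×10^5 CFU/mL in cation-adjusted Mueller-Hinton II broth, with relebactam at 4 μg/mL final; compounds 100 μM to 0.098 μM final. After 22 hours at 35±2° C, OD600 read; MITC95 is lowest concentration giving 95% growth inhibition.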

[2] = tested on: Pseudomonas aeruginosa expressing AmpC (CL5701); assay: Antibiotic activity: growth inhibitory concentration (OD600), Pseudomonas aeruginosa CL5701; format: cell-based; details: lowest concentration inhibiting 95% of bacterial growth; in the presence of β lactamase inhibitor Relebactam 4 μg/mL; 35±2° C. for 22 hours; tested range 100 μM to 0.098 μM
How it was run: as §1

| SMILES | KP_CL6569 MITC95 [1] [µM] | PA_CL5701 MITC95 [2] [µM] |
| --- | --- | --- |
| CC1(C)[C@H](NC(=O)/C(=N\O[C@@H](COc2ccc(-c3ccc(NCCN)[n+](CC4CNC4)c3)cc2)C(=O)O)c2csc(N)n2)C(=O)N1OS(=O)(=O)[O-] [Example 98, (S)-3-((Z)-2-(((S)-2-(4-(6-((2-aminoethyl)amino)-1-(azetidin-3-ylmethyl)pyridin-1-ium-3-yl)phenoxy)-1-carboxyethoxy)imino)-2-(2-aminothiazol-4-yl)acetamido)-2,2-dimethyl-4-oxoazetidin-1-yl sulfate] | 0.09766 | 1.563 |
| CC1(C)[C@H](NC(=O)/C(=N\O[C@@H](COc2ccc(-c3cnc(NCCN)[n+](CC4CNC4)c3)cc2)C(=O)O)c2csc(N)n2)C(=O)N1OS(=O)(=O)[O-] [Example 99, (S)-3-((Z)-2-(((S)-2-(4-(2-((2-aminoethyl)amino)-1-(azetidin-3-ylmethyl)pyrimidin-1-ium-5-yl)phenoxy)-1-carboxyethoxy)imino)-2-(2-aminothiazol-4-yl)acetamido)-2,2-dimethyl-4-oxoazetidin-1-yl sulfate] | 0.1953 | 3.125 |
| CC1(C)[C@H](NC(=O)/C(=N\O[C@@H](COc2ccc(-c3cn(CCCN)[n+](CCN)c3)cc2)C(=O)O)c2csc(N)n2)C(=O)N1OS(=O)(=O)[O-] [Example 100, (S)-3-((Z)-2-(((S)-2-(4-(2-(2-aminoethyl)-1-(3-aminopropyl)-1H-pyrazol-2-ium-4-yl)phenoxy)-1-carboxyethoxy)imino)-2-(2-aminothiazol-4-yl)acetamido)-2,2-dimethyl-4-oxoazetidin-1-yl sulfate] | 0.39 | 3.125 |
| C[n+]1cc(-c2ccc(OC[C@H](O/N=C(/C(=O)N[C@@H]3C(=O)N(OS(=O)(=O)[O-])C3(C)C)c3csc(N)n3)C(=O)O)cc2)cn1CCCNC[C@H](O)CO [Example 101, (S)-3-((E)-2-(2-aminothiazol-4-yl)-2-(((S)-1-carboxy-2-(4-(1-(3-(((S)-2,3-dihydroxypropyl)amino)propyl)-2-methyl-1H-pyrazol-2-ium-4-yl)phenoxy)ethoxy)imino)acetamido)-2,2-dimethyl-4-oxoazetidin-1-yl sulfate] | 0.7813 | 12.5 |
| C[n+]1cc(-c2ccc(OC[C@H](O/N=C(/C(=O)N[C@@H]3C(=O)N(OS(=O)(=O)[O-])C3(C)C)c3csc(N)n3)C(=O)O)cc2)cn1CCCNCCN [Example 102, (S)-3-((E)-2-(((S)-2-(4-(1-(3-((2-aminoethyl)amino)propyl)-2-methyl-1H-pyrazol-2-ium-4-yl)phenoxy)-1-carboxyethoxy)imino)-2-(2-aminothiazol-4-yl)acetamido)-2,2-dimethyl-4-oxoazetidin-1-yl sulfate] | 0.125 | 3.125 |
| C[n+]1cc(-c2ccc(OC[C@H](O/N=C(\C(=O)N[C@@H]3C(=O)N(OS(=O)(=O)O)C3(C)C)c3csc(N)n3)C(=O)O)cc2)cn1CCCNCC1CNC1 [Example 103, (S)-3-((E)-2-(2-aminothiazol-4-yl)-2-(((S)-2-(4-(1-(3-((azetidin-3-ylmethyl)amino)-propyl)-2-methyl-1H-pyrazol-2-ium-4-yl)phenoxy)-1-carboxyethoxy)imino)acetamido)-2,2-dimethyl-4-oxoazetidin-1-yl sulfate, 3TFA] | 0.09766 | 3.125 |
| C[n+]1cc(-c2ccc(OC[C@H](O/N=C(\C(=O)N[C@@H]3C(=O)N(OS(=O)(=O)O)C3(C)C)c3csc(N)n3)C(=O)O)cc2)cn1CCCNCCCN [Example 104, (S)-3-((E)-2-(((S)-2-(4-(1-(3-((3-aminopropyl)amino)-propyl)-2-methyl-1H-pyrazol-2-ium-4-yl)phenoxy)-1-carboxyethoxy)imino)-2-(2-aminothiazol-4-yl)acetamido)-2,2-dimethyl-4-oxoazetidin-1-yl sulfate, 3TFA] | 0.1953 | 6.25 |
| C[n+]1cc(-c2ccc(OC[C@](C)(O/N=C(\C(=O)N[C@@H]3C(=O)N(OS(=O)(=O)[O-])C3(C)C)c3csc(N)n3)C(=O)O)cc2F)cn1CCCN [Example 105, (S)-3-((Z)-2-((((Sn-1-(4-(1-(3-aminopropyl)-2-methyl-1H-pyrazol-2-ium-4-yl)-3-fluorophenoxy)-2-carboxypropan-2-yl)oxy)imino)-2-(2-aminothiazol-4-yl)acetamido)-2,2-dimethyl-4-oxoazetidin-1-yl sulfate] | 0.3906 | 3.125 |
| C[n+]1cc(-c2ccc(OC[C@H](O/N=C(\C(=O)N[C@@H]3C(=O)N(OS(=O)(=O)[O-])C3(C)C)c3csc(N)n3)C(=O)O)nn2)cn1CCCN [Example 106, (S)-3-((Z)-2-(((S)-2-((6-(1-(3-aminopropyl)-2-methyl-1H-pyrazol-2-ium-4-yl)pyridazin-3-yl)oxy)-1-carboxyethoxy)imino)-2-(2-aminothiazol-4-yl)acetamido)-2,2-dimethyl-4-oxoazetidin-1-yl sulfate] | 50 | 100 |
| Cn1c(-c2ccc(OC[C@](C)(O/N=C(\C(=O)N[C@@H]3C(=O)N(OS(=O)(=O)O)C3(C)C)c3csc(N)n3)C(=O)O)cc2)cn(CCCN)c1=N [Example 107, (S)-3-((Z)-2-((((S)-1-(4-(1-(3-aminopropyl)-2-imino-3-methyl-2,3-dihydro-1H-imidazol-4-yl)phenoxy)-2-carboxypropan-2-yl)oxy)imino)-2-(2-aminothiazol-4-yl)acetamido)-2,2-dimethyl-4-oxoazetidin-1-yl sulfate] | 6.25 | 50 |
| CC1(C)[C@H](NC(=O)/C(=N\O[C@@H](COc2ccc(Nc3cc[n+](CC4CNC4)cc3)nc2)C(=O)O)c2csc(N)n2)C(=O)N1OS(=O)(=O)[O-] [Example 108, (S)-3-((Z)-2-(2-aminothiazol-4-yl)-2-(((S)-2-((6-((1-(azetidin-3-ylmethyl)pyridin-1-ium-4-yl)amino)pyridin-3-yl)oxy)-1-carboxyethoxy)imino)acetamido)-2,2-dimethyl-4-oxoazetidin-1-yl sulfate] | 0.7813 | 12.5 |
| CC1(C)[C@H](NC(=O)/C(=N\O[C@@H](COc2ccc(-n3cc[n+](CC4CNC4)c3)nc2)C(=O)O)c2csc(N)n2)C(=O)N1OS(=O)(=O)[O-] [Example 109, (S)-3-((Z)-2-(2-aminothiazol-4-yl)-2-(((S)-2-((6-(3-(azetidin-3-ylmethyl)-1H-imidazol-3-ium-1-yl)pyridin-3-yl)oxy)-1-carboxyethoxy)imino)acetamido)-2,2-dimethyl-4-oxoazetidin-1-yl sulfate] | 0.7813 | 12.5 |
| CC1(C)[C@H](NC(=O)/C(=N\O[C@@H](COc2ccc(-n3cc[n+](CCC[N+](C)(C)C)c3)nc2)C(=O)O)c2csc(N)n2)C(=O)N1OS(=O)(=O)O [Example 110, (S)-3-((Z)-2-(2-aminothiazol-4-yl)-2-(((S)-1-carboxy-2-((6-(3-(3-(trimethylammonio)propyl)-1H-imidazol-3-ium-1-yl)pyridin-3-yl)oxy)ethoxy)imino)acetamido)-2,2-dimethyl-4-oxoazetidin-1-yl sulfate] | 1.563 | 50 |
| CC1(C)[C@H](NC(=O)/C(=N\O[C@@H](COc2cnc(-n3cc[n+](CCCN)c3)nc2)C(=O)O)c2csc(N)n2)C(=O)N1OS(=O)(=O)[O-] [Example 111, (S)-3-((Z)-2-(((S)-2-((2-(3-(3-aminopropyl)-1H-imidazol-3-ium-1-yl)pyrimidin-5-yl)oxy)-1-carboxyethoxy)imino)-2-(2-aminothiazol-4-yl)acetamido)-2,2-dimethyl-4-oxoazetidin-1-yl sulfate] | 1.563 | 50 |
| CC1(C)[C@H](NC(=O)/C(=N\O[C@@H](COc2ccc(-n3cc[n+](CCCN)c3)nc2)C(=O)O)c2csc(N)n2)C(=O)N1OS(=O)(=O)[O-] [Example 112, (S)-3-((Z)-2-(((S)-2-((6-(3-(3-aminopropyl)-1H-imidazol-3-ium-1-yl)pyridin-3-yl)oxy)-1-carboxyethoxy)imino)-2-(2-aminothiazol-4-yl)acetamido)-2,2-dimethyl-4-oxoazetidin-1-yl sulfate] | 0.7813 | 10.42 |
| CC1(C)[C@H](NC(=O)/C(=N\O[C@@](C)(COc2ccc(-n3cc[n+](CCCN)c3)nc2)C(=O)O)c2csc(N)n2)C(=O)N1OS(=O)(=O)[O-] [Example 113, (S)-3-((Z)-2-((((S)-1-((6-(3-(3-aminopropyl)-1H-imidazol-3-ium-1-yl)pyridin-3-yloxy)-2-carboxypropan-2-yl)oxy)imino)-2-(2-aminothiazol-4-yl)acetamido)-2,2-dimethyl-4-oxoazetidin-1-yl sulfate] | 0.7813 | 12.5 |
| Cn1c(-c2ccc(OC[C@H](O/N=C(\C(=O)N[C@@H]3C(=O)N(OS(=O)(=O)O)C3(C)C)c3csc(N)n3)C(N)=O)cc2)cn(CCCN)c1=N [Example 114, (S)-3-((Z)-2-((((S)-1-amino-3-(4-(1-(3-aminopropyl)-2-imino-3-methyl-2,3-dihydro-1H-imidazol-4-yl)phenoxy)-1-oxopropan-2-yl)oxy)imino)-2-(2-aminothiazol-4-yl)acetamido)-2,2-dimethyl-4-oxoazetidin-1-yl sulfate] | 1.563 | 50 |
| CCOC(=O)[C@H](COc1ccc(-c2cn(CCCN)[n+](C)c2)cc1)O/N=C(\C(=O)N[C@@H]1C(=O)N(OS(=O)(=O)[O-])C1(C)C)c1csc(N)n1 [Example 115, (S)-3-((Z)-2-((((S)-3-(4-(1-(3-aminopropyl)-2-methyl-1H-pyrazol-2-ium-4-yl)phenoxy)-1-ethoxy-1-oxopropan-2-yl)oxy)imino)-2-(2-aminothiazol-4-yl)acetamido)-2,2-dimethyl-4-oxoazetidin-1-yl sulfate] | 12.5 | 100 |

— patent publication US11230543B2, “Biaryl monobactam compounds and methods of use thereof for the treatment of bacterial infections” (priority 2015, dated 2022)
